Source: the kinase profiling compilation of Christmann-Franck et al. (2016)

target: MARK3 (human) (UniProt P27448); test: radiometric filter-binding kinase assay, Kinase HotSpot; details: compound 0.5 µM; ATP 10 µM

Structure (SMILES) | residual activity [%]
N#CCCc1ccc2c(c1)-c1[nH]c3ccc([N+](=O)[O-])cc3c1CC(=O)N2 | 67.3
O=c1c2ccccc2[nH]c(=S)n1CCN1CCC(=C(c2ccc(F)cc2)c2ccc(F)cc2)CC1 | 107
Nc1ncnc2c1cnn2-c1ccccc1 | 86.1
O=C(c1ccccc1)c1ccc(N2CCOCC2)cc1O | 105

target: MET (human) (UniProt P08581); test: as above; details: compound 0.5 µM; ATP 10 µM

Structure (SMILES) | residual activity [%]
N#CCCc1ccc2c(c1)-c1[nH]c3ccc([N+](=O)[O-])cc3c1CC(=O)N2 | 119
O=c1c2ccccc2[nH]c(=S)n1CCN1CCC(=C(c2ccc(F)cc2)c2ccc(F)cc2)CC1 | 114
Nc1ncnc2c1cnn2-c1ccccc1 | 97.1
O=C(c1ccccc1)c1ccc(N2CCOCC2)cc1O | 115

target: MUSK (human) (UniProt O15146); test: as above; details: compound 0.5 µM; ATP 10 µM
Sequence (O15146 whole entry, looked up): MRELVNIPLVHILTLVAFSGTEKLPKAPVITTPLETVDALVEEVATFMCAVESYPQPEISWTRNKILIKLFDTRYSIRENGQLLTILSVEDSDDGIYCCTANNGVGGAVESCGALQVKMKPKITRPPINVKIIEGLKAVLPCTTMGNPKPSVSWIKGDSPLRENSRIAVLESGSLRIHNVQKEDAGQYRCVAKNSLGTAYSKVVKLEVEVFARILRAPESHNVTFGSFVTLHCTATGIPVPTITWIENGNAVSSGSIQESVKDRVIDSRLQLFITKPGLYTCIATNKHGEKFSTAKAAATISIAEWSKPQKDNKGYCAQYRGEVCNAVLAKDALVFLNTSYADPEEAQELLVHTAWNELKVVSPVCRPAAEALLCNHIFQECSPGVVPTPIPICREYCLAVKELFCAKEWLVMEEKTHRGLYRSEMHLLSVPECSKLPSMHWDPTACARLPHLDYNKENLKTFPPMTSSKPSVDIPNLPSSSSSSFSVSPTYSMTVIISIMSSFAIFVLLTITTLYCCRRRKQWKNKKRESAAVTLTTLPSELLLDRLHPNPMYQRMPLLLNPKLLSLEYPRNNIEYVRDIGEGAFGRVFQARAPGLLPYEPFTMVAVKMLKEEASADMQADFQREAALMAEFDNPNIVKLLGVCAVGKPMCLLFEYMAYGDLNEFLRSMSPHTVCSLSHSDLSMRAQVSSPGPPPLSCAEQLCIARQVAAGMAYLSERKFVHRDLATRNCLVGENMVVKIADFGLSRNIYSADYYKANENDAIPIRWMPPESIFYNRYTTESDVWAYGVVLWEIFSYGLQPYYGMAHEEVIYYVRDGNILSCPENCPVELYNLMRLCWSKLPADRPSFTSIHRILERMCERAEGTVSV

Structure (SMILES) | residual activity [%]
N#CCCc1ccc2c(c1)-c1[nH]c3ccc([N+](=O)[O-])cc3c1CC(=O)N2 | 63
O=c1c2ccccc2[nH]c(=S)n1CCN1CCC(=C(c2ccc(F)cc2)c2ccc(F)cc2)CC1 | 93.6
Nc1ncnc2c1cnn2-c1ccccc1 | 88
O=C(c1ccccc1)c1ccc(N2CCOCC2)cc1O | 101

target: NEK11 (human) (UniProt Q8NG66); test: as above; details: compound 0.5 µM; ATP 10 µM

Structure (SMILES) | residual activity [%]
N#CCCc1ccc2c(c1)-c1[nH]c3ccc([N+](=O)[O-])cc3c1CC(=O)N2 | 101
O=c1c2ccccc2[nH]c(=S)n1CCN1CCC(=C(c2ccc(F)cc2)c2ccc(F)cc2)CC1 | 94
Nc1ncnc2c1cnn2-c1ccccc1 | 107
O=C(c1ccccc1)c1ccc(N2CCOCC2)cc1O | 97.7

target: NLK (human) (UniProt Q9UBE8); test: as above; details: compound 0.5 µM; ATP 10 µM

Structure (SMILES) | residual activity [%]
N#CCCc1ccc2c(c1)-c1[nH]c3ccc([N+](=O)[O-])cc3c1CC(=O)N2 | 89.7
O=c1c2ccccc2[nH]c(=S)n1CCN1CCC(=C(c2ccc(F)cc2)c2ccc(F)cc2)CC1 | 99.5
Nc1ncnc2c1cnn2-c1ccccc1 | 92.5
O=C(c1ccccc1)c1ccc(N2CCOCC2)cc1O | 97.3

target: NTRK3 (human) (UniProt Q16288); test: as above; details: compound 0.5 µM; ATP 10 µM
Sequence (Q16288 whole entry, looked up): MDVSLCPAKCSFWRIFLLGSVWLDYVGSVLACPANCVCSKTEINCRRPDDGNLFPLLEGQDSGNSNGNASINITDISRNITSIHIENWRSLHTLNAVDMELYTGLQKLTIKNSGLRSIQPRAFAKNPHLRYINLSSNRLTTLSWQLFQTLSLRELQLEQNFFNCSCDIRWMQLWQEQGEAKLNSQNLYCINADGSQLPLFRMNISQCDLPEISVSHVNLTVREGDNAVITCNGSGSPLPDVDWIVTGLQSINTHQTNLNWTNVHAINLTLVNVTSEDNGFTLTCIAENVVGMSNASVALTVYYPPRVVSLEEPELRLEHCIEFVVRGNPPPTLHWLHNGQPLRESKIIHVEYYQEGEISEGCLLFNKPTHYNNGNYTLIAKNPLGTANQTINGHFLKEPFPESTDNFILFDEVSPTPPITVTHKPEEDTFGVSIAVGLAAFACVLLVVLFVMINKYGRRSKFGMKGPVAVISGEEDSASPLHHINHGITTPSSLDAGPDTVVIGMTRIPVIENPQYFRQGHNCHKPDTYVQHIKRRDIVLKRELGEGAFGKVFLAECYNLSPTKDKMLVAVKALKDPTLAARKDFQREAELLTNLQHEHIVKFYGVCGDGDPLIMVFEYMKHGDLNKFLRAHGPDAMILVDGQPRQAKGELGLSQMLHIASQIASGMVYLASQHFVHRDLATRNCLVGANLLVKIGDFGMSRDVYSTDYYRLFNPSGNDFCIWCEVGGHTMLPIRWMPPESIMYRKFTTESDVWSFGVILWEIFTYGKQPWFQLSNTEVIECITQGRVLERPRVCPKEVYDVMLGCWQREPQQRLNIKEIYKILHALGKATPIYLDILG

Structure (SMILES) | residual activity [%]
N#CCCc1ccc2c(c1)-c1[nH]c3ccc([N+](=O)[O-])cc3c1CC(=O)N2 | 61.2
O=c1c2ccccc2[nH]c(=S)n1CCN1CCC(=C(c2ccc(F)cc2)c2ccc(F)cc2)CC1 | 98.9
Nc1ncnc2c1cnn2-c1ccccc1 | 93.6
O=C(c1ccccc1)c1ccc(N2CCOCC2)cc1O | 93.7

target: PAK2 (human) (UniProt Q13177); test: as above; details: compound 0.5 µM; ATP 10 µM

Structure (SMILES) | residual activity [%]
N#CCCc1ccc2c(c1)-c1[nH]c3ccc([N+](=O)[O-])cc3c1CC(=O)N2 | 55.6
O=c1c2ccccc2[nH]c(=S)n1CCN1CCC(=C(c2ccc(F)cc2)c2ccc(F)cc2)CC1 | 103
Nc1ncnc2c1cnn2-c1ccccc1 | 98.1
O=C(c1ccccc1)c1ccc(N2CCOCC2)cc1O | 103

target: PAK3 (human) (UniProt O75914); test: as above; details: compound 0.5 µM; ATP 10 µM

Structure (SMILES) | residual activity [%]
N#CCCc1ccc2c(c1)-c1[nH]c3ccc([N+](=O)[O-])cc3c1CC(=O)N2 | 97.1
O=c1c2ccccc2[nH]c(=S)n1CCN1CCC(=C(c2ccc(F)cc2)c2ccc(F)cc2)CC1 | 94.6
Nc1ncnc2c1cnn2-c1ccccc1 | 98.8
O=C(c1ccccc1)c1ccc(N2CCOCC2)cc1O | 99.4

target: PBK (human) (UniProt Q96KB5); test: as above; details: compound 0.5 µM; ATP 10 µM

Structure (SMILES) | residual activity [%]
N#CCCc1ccc2c(c1)-c1[nH]c3ccc([N+](=O)[O-])cc3c1CC(=O)N2 | 95.4
O=c1c2ccccc2[nH]c(=S)n1CCN1CCC(=C(c2ccc(F)cc2)c2ccc(F)cc2)CC1 | 107
Nc1ncnc2c1cnn2-c1ccccc1 | 92.4
O=C(c1ccccc1)c1ccc(N2CCOCC2)cc1O | 114

target: PDGFRA (human) (UniProt P16234); test: as above; details: compound 0.5 µM; ATP 10 µM

Structure (SMILES) | residual activity [%]
N#CCCc1ccc2c(c1)-c1[nH]c3ccc([N+](=O)[O-])cc3c1CC(=O)N2 | 87.4
O=c1c2ccccc2[nH]c(=S)n1CCN1CCC(=C(c2ccc(F)cc2)c2ccc(F)cc2)CC1 | 97
Nc1ncnc2c1cnn2-c1ccccc1 | 103
O=C(c1ccccc1)c1ccc(N2CCOCC2)cc1O | 91.9

target: PHKG1 (human) (UniProt Q16816); test: as above; details: compound 0.5 µM; ATP 10 µM

Structure (SMILES) | residual activity [%]
N#CCCc1ccc2c(c1)-c1[nH]c3ccc([N+](=O)[O-])cc3c1CC(=O)N2 | 7.72
O=c1c2ccccc2[nH]c(=S)n1CCN1CCC(=C(c2ccc(F)cc2)c2ccc(F)cc2)CC1 | 101
Nc1ncnc2c1cnn2-c1ccccc1 | 94.2
O=C(c1ccccc1)c1ccc(N2CCOCC2)cc1O | 97.4

target: PLK2 (human) (UniProt Q9NYY3); test: as above; details: compound 0.5 µM; ATP 10 µM

Structure (SMILES) | residual activity [%]
N#CCCc1ccc2c(c1)-c1[nH]c3ccc([N+](=O)[O-])cc3c1CC(=O)N2 | 99
O=c1c2ccccc2[nH]c(=S)n1CCN1CCC(=C(c2ccc(F)cc2)c2ccc(F)cc2)CC1 | 104
Nc1ncnc2c1cnn2-c1ccccc1 | 99.2
O=C(c1ccccc1)c1ccc(N2CCOCC2)cc1O | 111

target: PRKCB2 (human) (UniProt P05771); test: as above; details: compound 0.5 µM; ATP 10 µM
Sequence (P05771 whole entry, looked up): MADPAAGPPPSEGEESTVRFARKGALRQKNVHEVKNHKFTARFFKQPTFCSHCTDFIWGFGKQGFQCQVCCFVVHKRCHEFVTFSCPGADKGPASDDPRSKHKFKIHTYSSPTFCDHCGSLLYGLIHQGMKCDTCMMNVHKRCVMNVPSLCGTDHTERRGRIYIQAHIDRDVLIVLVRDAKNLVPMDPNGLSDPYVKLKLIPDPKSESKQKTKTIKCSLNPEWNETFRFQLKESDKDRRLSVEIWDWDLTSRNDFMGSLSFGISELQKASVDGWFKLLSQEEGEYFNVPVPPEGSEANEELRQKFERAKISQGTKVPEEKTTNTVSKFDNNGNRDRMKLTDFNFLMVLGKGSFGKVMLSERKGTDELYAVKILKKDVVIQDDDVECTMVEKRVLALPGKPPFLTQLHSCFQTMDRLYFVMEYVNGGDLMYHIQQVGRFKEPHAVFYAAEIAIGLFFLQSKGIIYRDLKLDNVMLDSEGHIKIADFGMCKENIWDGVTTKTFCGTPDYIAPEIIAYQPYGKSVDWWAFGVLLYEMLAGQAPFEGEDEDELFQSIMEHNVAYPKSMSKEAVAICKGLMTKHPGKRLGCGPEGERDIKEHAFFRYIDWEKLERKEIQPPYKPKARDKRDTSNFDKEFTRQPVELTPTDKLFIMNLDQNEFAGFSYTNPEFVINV

Structure (SMILES) | residual activity [%]
N#CCCc1ccc2c(c1)-c1[nH]c3ccc([N+](=O)[O-])cc3c1CC(=O)N2 | 76.3
O=c1c2ccccc2[nH]c(=S)n1CCN1CCC(=C(c2ccc(F)cc2)c2ccc(F)cc2)CC1 | 98.2
Nc1ncnc2c1cnn2-c1ccccc1 | 96.5
O=C(c1ccccc1)c1ccc(N2CCOCC2)cc1O | 99.2

target: RET (human) (UniProt P07949); test: as above; details: compound 0.5 µM; ATP 10 µM

Structure (SMILES) | residual activity [%]
N#CCCc1ccc2c(c1)-c1[nH]c3ccc([N+](=O)[O-])cc3c1CC(=O)N2 | 80.8
O=c1c2ccccc2[nH]c(=S)n1CCN1CCC(=C(c2ccc(F)cc2)c2ccc(F)cc2)CC1 | 106
Nc1ncnc2c1cnn2-c1ccccc1 | 98.2
O=C(c1ccccc1)c1ccc(N2CCOCC2)cc1O | 97.8

target: RPS6KA3 KD1 KD2 (human) (UniProt P51812); test: as above; details: compound 0.5 µM; ATP 10 µM

Structure (SMILES) | residual activity [%]
N#CCCc1ccc2c(c1)-c1[nH]c3ccc([N+](=O)[O-])cc3c1CC(=O)N2 | 28.6
O=c1c2ccccc2[nH]c(=S)n1CCN1CCC(=C(c2ccc(F)cc2)c2ccc(F)cc2)CC1 | 99.8
Nc1ncnc2c1cnn2-c1ccccc1 | 95
O=C(c1ccccc1)c1ccc(N2CCOCC2)cc1O | 104

target: RPS6KB1 (human) (UniProt P23443); test: as above; details: compound 0.5 µM; ATP 10 µM
Sequence (P23443 whole entry, looked up): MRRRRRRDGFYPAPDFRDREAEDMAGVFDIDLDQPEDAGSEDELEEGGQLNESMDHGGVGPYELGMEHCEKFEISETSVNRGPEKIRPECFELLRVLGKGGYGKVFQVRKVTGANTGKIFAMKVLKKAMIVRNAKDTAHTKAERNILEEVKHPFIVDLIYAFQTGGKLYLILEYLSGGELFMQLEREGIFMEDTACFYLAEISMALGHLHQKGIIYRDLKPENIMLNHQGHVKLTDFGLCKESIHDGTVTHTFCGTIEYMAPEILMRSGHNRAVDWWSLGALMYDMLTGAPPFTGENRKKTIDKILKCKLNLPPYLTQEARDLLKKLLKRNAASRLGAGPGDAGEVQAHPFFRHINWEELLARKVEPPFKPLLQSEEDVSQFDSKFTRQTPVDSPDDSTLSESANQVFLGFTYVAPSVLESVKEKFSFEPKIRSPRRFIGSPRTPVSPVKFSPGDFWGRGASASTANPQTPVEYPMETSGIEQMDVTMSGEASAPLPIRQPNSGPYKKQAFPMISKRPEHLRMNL

Structure (SMILES) | residual activity [%]
N#CCCc1ccc2c(c1)-c1[nH]c3ccc([N+](=O)[O-])cc3c1CC(=O)N2 | 98
O=c1c2ccccc2[nH]c(=S)n1CCN1CCC(=C(c2ccc(F)cc2)c2ccc(F)cc2)CC1 | 97.9
Nc1ncnc2c1cnn2-c1ccccc1 | 103
O=C(c1ccccc1)c1ccc(N2CCOCC2)cc1O | 95.3

target: SRPK1 (human) (UniProt Q96SB4); test: as above; details: compound 0.5 µM; ATP 10 µM
Sequence (Q96SB4 whole entry, looked up): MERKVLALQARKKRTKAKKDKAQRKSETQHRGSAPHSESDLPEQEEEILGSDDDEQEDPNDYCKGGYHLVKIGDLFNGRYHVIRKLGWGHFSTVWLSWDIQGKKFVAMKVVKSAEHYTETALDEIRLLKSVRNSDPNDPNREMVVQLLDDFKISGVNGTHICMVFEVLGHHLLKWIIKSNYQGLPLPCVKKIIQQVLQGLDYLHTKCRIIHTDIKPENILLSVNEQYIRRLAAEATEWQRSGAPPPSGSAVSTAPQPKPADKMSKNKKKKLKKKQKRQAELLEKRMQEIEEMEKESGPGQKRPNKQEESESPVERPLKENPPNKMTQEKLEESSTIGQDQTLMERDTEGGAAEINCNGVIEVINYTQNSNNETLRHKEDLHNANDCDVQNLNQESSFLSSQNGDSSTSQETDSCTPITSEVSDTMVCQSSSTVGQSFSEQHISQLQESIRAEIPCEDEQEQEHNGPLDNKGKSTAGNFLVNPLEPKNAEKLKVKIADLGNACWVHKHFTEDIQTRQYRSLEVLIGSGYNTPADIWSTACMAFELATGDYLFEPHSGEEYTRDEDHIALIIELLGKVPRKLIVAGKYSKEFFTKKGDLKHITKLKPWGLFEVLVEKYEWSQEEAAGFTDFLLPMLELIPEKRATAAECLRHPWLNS

Structure (SMILES) | residual activity [%]
N#CCCc1ccc2c(c1)-c1[nH]c3ccc([N+](=O)[O-])cc3c1CC(=O)N2 | 107
O=c1c2ccccc2[nH]c(=S)n1CCN1CCC(=C(c2ccc(F)cc2)c2ccc(F)cc2)CC1 | 97.8
Nc1ncnc2c1cnn2-c1ccccc1 | 98.1
O=C(c1ccccc1)c1ccc(N2CCOCC2)cc1O | 94.2

target: STK10 (human) (UniProt O94804); test: as above; details: compound 0.5 µM; ATP 10 µM

Structure (SMILES) | residual activity [%]
N#CCCc1ccc2c(c1)-c1[nH]c3ccc([N+](=O)[O-])cc3c1CC(=O)N2 | 74.1
O=c1c2ccccc2[nH]c(=S)n1CCN1CCC(=C(c2ccc(F)cc2)c2ccc(F)cc2)CC1 | 96.2
Nc1ncnc2c1cnn2-c1ccccc1 | 95.4
O=C(c1ccccc1)c1ccc(N2CCOCC2)cc1O | 97.9

target: TSSK1B (human) (UniProt Q9BXA7); test: as above; details: compound 0.5 µM; ATP 10 µM
Sequence (Q9BXA7 whole entry, looked up): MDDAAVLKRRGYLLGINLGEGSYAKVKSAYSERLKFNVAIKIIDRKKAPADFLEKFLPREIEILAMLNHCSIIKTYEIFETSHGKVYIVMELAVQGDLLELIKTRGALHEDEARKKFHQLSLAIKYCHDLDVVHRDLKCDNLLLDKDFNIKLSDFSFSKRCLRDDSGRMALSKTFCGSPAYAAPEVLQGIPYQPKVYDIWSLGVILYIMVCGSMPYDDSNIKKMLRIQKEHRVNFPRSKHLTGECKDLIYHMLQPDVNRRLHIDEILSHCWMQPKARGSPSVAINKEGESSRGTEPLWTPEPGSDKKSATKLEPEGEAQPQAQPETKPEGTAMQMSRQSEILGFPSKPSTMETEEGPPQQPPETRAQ

Structure (SMILES) | residual activity [%]
N#CCCc1ccc2c(c1)-c1[nH]c3ccc([N+](=O)[O-])cc3c1CC(=O)N2 | 59.2
O=c1c2ccccc2[nH]c(=S)n1CCN1CCC(=C(c2ccc(F)cc2)c2ccc(F)cc2)CC1 | 106
Nc1ncnc2c1cnn2-c1ccccc1 | 84.1
O=C(c1ccccc1)c1ccc(N2CCOCC2)cc1O | 107

target: ULK1 (human) (UniProt O75385); test: as above; details: compound 0.5 µM; ATP 10 µM
Sequence (O75385 whole entry, looked up): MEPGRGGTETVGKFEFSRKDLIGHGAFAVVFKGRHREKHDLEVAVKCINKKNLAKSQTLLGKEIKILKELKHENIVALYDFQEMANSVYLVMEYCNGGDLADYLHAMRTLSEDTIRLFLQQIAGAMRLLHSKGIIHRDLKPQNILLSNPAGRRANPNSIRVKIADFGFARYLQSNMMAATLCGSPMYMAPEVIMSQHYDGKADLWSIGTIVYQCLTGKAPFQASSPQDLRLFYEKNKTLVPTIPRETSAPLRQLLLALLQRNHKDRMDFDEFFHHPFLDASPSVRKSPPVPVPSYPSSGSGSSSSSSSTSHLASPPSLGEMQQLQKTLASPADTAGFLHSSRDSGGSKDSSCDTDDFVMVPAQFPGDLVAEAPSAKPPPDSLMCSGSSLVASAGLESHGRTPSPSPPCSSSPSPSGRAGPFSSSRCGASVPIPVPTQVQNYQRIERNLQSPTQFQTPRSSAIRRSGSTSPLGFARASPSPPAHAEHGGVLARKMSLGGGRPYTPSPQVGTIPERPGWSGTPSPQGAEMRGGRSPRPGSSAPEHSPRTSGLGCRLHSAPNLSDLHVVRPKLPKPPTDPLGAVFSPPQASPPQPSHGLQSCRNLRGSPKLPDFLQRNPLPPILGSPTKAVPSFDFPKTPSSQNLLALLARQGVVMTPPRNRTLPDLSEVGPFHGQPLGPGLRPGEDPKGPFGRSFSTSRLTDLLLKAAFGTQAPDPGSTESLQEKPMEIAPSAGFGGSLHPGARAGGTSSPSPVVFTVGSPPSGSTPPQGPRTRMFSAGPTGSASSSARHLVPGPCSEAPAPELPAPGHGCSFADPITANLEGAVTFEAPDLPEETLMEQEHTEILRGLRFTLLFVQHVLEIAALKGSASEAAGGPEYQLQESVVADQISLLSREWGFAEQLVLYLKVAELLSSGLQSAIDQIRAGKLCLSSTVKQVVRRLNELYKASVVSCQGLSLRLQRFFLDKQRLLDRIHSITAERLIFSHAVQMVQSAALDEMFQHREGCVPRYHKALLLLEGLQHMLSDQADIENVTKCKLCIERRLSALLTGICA

Structure (SMILES) | residual activity [%]
N#CCCc1ccc2c(c1)-c1[nH]c3ccc([N+](=O)[O-])cc3c1CC(=O)N2 | 94.2
O=c1c2ccccc2[nH]c(=S)n1CCN1CCC(=C(c2ccc(F)cc2)c2ccc(F)cc2)CC1 | 98.1
Nc1ncnc2c1cnn2-c1ccccc1 | 99.5
O=C(c1ccccc1)c1ccc(N2CCOCC2)cc1O | 98.9

target: ULK2 (human) (UniProt Q8IYT8); test: as above; details: compound 0.5 µM; ATP 10 µM

Structure (SMILES) | residual activity [%]
N#CCCc1ccc2c(c1)-c1[nH]c3ccc([N+](=O)[O-])cc3c1CC(=O)N2 | 73.1
O=c1c2ccccc2[nH]c(=S)n1CCN1CCC(=C(c2ccc(F)cc2)c2ccc(F)cc2)CC1 | 96.5
Nc1ncnc2c1cnn2-c1ccccc1 | 95.1
O=C(c1ccccc1)c1ccc(N2CCOCC2)cc1O | 96.7
